Measured values from patent US20230372395A1, “CAR CELLS TARGETING AN INSERTED LIGAND” (Massachusetts Institute of Technology, priority 2022, published 2023).

Tests used:
[1] = test system: B16F10 murine melanoma cells; test: Amph-FITC labeling of tumor cells in vitro, flow cytometry; assay type: cell-based; details: incubated 30 min at 37° C.
Method: (§1) Amph-FITC labeling and cytotoxicity studies: For in vitro labeling of tumor cells with amph-FITC, tumor cells were washed with 1×PBS and incubated at a cell density of 10^6 cells/mL for 30 minutes at 37° C. with DSPE-PEGx-FITC, where x=0, 1, 2, 3.4, 5, or 10 kDa (Creative PEGworks) in PBS. For cocultures, target cells were labeled simultaneously with 100 nM amph-FITC and CellTrace Violet (ThermoFisher); 20,000 target cells were seeded per well in a 96-well flat-bottom plate with CAR T cells at the indicated effector-to-target ratios. Following a 16 hr incubation, cells were stained with SYTOX red (ThermoFisher) for flow cytometry, and IFN-γ in the supernatant was quantified using a Mouse IFN gamma Uncoated ELISA Kit (Invitrogen).

[2] = test system: MC38 murine colon carcinoma cells; test: as above; assay type: cell-based; details: 100 nM, 30 min at 37° C.
Method: as §1

CT-2A glioblastoma cells = test: as above; assay type: cell-based, murine; details: 100 nM, 30 min at 37° C.
Method: as §1

B16F10 tumors [3] = test: CAR T cell expansion and tumor homing by bioluminescence imaging; assay type: in vivo, C57BL/6 mice
Description: (§2) C57BL/6 WT, CD45.1^+, Batf3 KO, and Rag1 KO mice (Jackson Laboratory, 6 to 8 weeks old) were inoculated with 10^6 B16F10, 10^6 MC38, 10^6 TC-1, or 3×10^6 CT-2A tumor cells subcutaneously at the flank. Once tumors grew to ˜25 mm^2 in area, mice underwent a non-myeloablative 5 Gy dose of TBI administered by a [^137Cs] gamma radiation source, 24 hr prior to adoptive transfer of 10^7 CD45.1+ CAR T cells IV via the tail vein. One day later, mice were vaccinated subcutaneously at the tail base with 10 nmol DSPE-PEG2k-FITC (Creative PEGworks) and 25 μg cyclic di-GMP (Invivogen), and vaccinated for 3 total doses, once weekly. Intratumoral injection of 10 nmol amph-FITC was administered beginning the day after the first vaccination, and continuing every 3 days.
(§3) For all studies, tumor progression was monitored by caliper measurements. Survival was evaluated over time until tumors exceeded 200 mm^2 in area, were severely ulcerated >1 week, or experienced >20% weight loss. To monitor trafficking of Fluc-expressing CAR T cells, mice were injected subcutaneously at the scruff with 150 mg/kg D-luciferin K^+ Salt (Perkin-Elmer) and imaged on a Xenogen IVIS Spectrum. Prior to imaging, C57BL/6 mice were depilated on their back to improve signal sensitivity.

CT-2A tumors [4] = test: T cell infiltration of treated tumors, immunohistochemistry; assay type: in vivo, C57BL/6 mice; details: day 12, i.t. amph-FITC ± amph-FITC vaccine
Description: as §2

B16F10 tumors [5] = test: In vivo therapy study, tumor growth and survival; design: species or system C57BL/6 mice; details: addition of amph-FITC vaccine boosting to E2-28z CAR T cells + intratumoral amph-FITC
Description: as §2, §3

CT-2A tumors [6] = test: In vivo therapy study, tumor growth and survival; design: species or system C57BL/6 mice; details: intratumoral once every 6 days instead of every 3 days
Description: as §2, §3

[7] = Toxicity of amph-FITC and FITC CAR T therapy in tumor-bearing mice; assay type: in vivo, C57BL/6 mice
Description: as §2, §3

B16F10 melanomas = test: Bilateral flank tumors, i.t. amph-FITC only in the 1° lesion; assay type: in vivo, C57BL/6 mice
Description: as §2, §3

CT-2A tumors [8] = test: as above; assay type: in vivo, C57BL/6 mice; details: FITC-CAR T cells, amph-FITC vaccination, i.t. amph-FITC right flank only
Description: as §2, §3

MSTO-211H tumors = test: Xenograft study with human CAR T cells and intratumoral amph-FITC; assay type: in vivo
Method: For xenograft studies, 6- to 12-week-old NOD.Cg-Prkdc^scidIL2rg^tm1Wj1/SzJ (NSG) mice (Jackson Laboratory) were inoculated with 3×10^6 MSTO-211H cells subcutaneously at the flank. Once tumors grew to ˜25 mm^2, mice were adoptively transferred with 10^7 CAR T cells IV via the tail vein. Intratumoral injection of 10 nmol amph-FITC was administered beginning the day after adoptive transfer, and continuing every 3 days.
as §3
For quantification of human CAR T cells in the peripheral blood, spleen, and tumor, tissues were processed as described above, then stained with LIVE/DEAD Aqua, BUV496 anti-CD4 (clone SK3/Leu3a, BD Biosciences), BUV805 anti-CD8α (clone SK1, BD Biosciences), PE anti-myc tag (clone 9B11, Cell Signaling), and APC-Cy7 anti-CD45 (clone 2D1, BioLegend).

B16F10 tumors [9] = test system: B16F10 tumors
Method: For cellular localization studies, MC38 tumor-bearing mice were injected intratumorally with 10 nmol DSPE-PEG2k-FITC, and 24 hr later tumors were enzymatically digested at 37° C. for 30 min with 1 mg/mL collagenase D and 0.2 mg/mL DNase I in complete RPMI media before mechanical dissociation through a 70 μm cell strainer.

[10] = injection of only the primary tumor

## 1,2-distearoyl-sn-glycero-3-phosphoethanolamine-PEG-FITC [amph-FITC]
[1]
  FITC exposed on the cell surfaces (anti-FITC antibody staining): exposed on the cell surfaces
  association of amph-FITC with the cells (total FITC): dose-dependent association
[2]
  association with and exposure on cell surfaces: associate with and be exposed on the surfaces
CT-2A glioblastoma cells
  association with and exposure on cell surfaces: associate with and be exposed on the surfaces
B16F10 tumors [3]; addition of the vaccine boost to intratumoral amph-FITC
  impact on overall T cell expansion or accumulation at the tumor site: did not have a significant impact
B16F10 tumors [3]; i.t. amph-FITC with E2-28z CAR T cells
  CAR T cell expansion (bioluminescence): triggered CAR T cell expansion
B16F10 tumors [3]; intratumoral amph-FITC compared with amph-FITC vaccination alone
  CAR T cell accumulation at the tumor site: greater accumulation at the tumor site
CT-2A tumors [4]
  T cell infiltration of treated tumors: substantial T cell infiltration throughout the tumor
B16F10 tumors [5]
  increase of median survival: 3 days
CT-2A tumors [6]
  therapeutic effect at reduced injection frequency: did not reduce the therapeutic effect
[7]; CAR T cells with intratumoral amph-FITC and amph-FITC vaccination, versus untreated control
  body weight: no weight loss
[7]; local i.t. administration during treatment
  inflammation of the skin surrounding treated tumors: no obvious inflammation
B16F10 melanomas; [10]
  growth of the treated primary tumor: slowed growth
  progression of the untreated lesions: trend toward slowed progression
B16F10 melanomas; over untreated animals
  overall survival: substantial increases in overall survival
CT-2A tumors [8]
  overall survival: substantially improved
  progression of injected (1°) and non-injected (2°) tumors: substantially slowed progression
MSTO-211H tumors; mouse, in vivo
  graft vs. host disease: exacerbated GVHD
MSTO-211H tumors; whole mouse radiance
  relative expansion of CAR T cells induced by amph-FITC treatment: 13.3 fold
B16F10 tumors [9]; 5 Gy TBI 24 hours prior to amph-FITC injection
  cellular distribution of FITC labeling after lymphodepletion: favored labeling of cancer cells in an even greater proportion
B16F10 tumors [9]; after 1 hour, cancer cells and host cells
  proportion of each cell type bearing extracellularly exposed FITC: 40-60%
B16F10 tumors [9]; at 24 hours
  proportion of cells still bearing exposed FITC: 20-40%
B16F10 tumors [9]; by 24 hours
  cell type numerically dominant among cells surface-decorated with FITC: majority of cells surface-decorated with FITC were the cancer cells
